In paper PMC12670160, “A drug-repurposing screen of FDA- and EMA-approved drugs identifies two NF-κB inhibitors active against eumycetoma” (Journal of Antimicrobial Chemotherapy, 2025):
Where a name gives a salt, the structure may show the parent alone. Read-outs that look alike come from different tables or passages of the source.

System: M. mycetomatis strain mm55
Conditions: 96 h, 2 µM

CC(C)OC(=O)C(C)NP(=O)(COC(C)Cn1cnc2c(N)ncnc21)Oc1ccccc1 (stereo not drawn) [ONC0004548, tenofovir alafenamide gs7340]
% viability (m. mycetomatis hyphae): 45.02%

COc1cccc([C@]2(O)CCCC[C@H]2CN(C)C)c1 [ONC0004178, tramadol hydrochloride]
% viability (m. mycetomatis hyphae): 135.3%

CC(C)(C)c1ccc(-c2nc3ccccc3[nH]2)cc1 [ONC0004834, zln005]
% viability (m. mycetomatis hyphae): 87.04%

CC(C)(C)C#Cc1cc(N(C(=O)[C@H]2CC[C@H](C)CC2)[C@H]2CC[C@@H](O)CC2)c(C(=O)O)s1 [ONC0004853, lomibuvir vx222 vch222]
% viability (m. mycetomatis hyphae): 92.92%

CS[C@H]1SC[C@H]2C(=O)N(C)[C@@H](C(C)C)C(=O)OC[C@@H](NC(=O)c3cnc4ccccc4n3)C(=O)N[C@@H](C)C(=O)N(C)[C@@H]1C(=O)N(C)[C@@H](C(C)C)C(=O)OC[C@@H](NC(=O)c1cnc3ccccc3n1)C(=O)N[C@@H](C)C(=O)N2C [ONC0004195, echinomycin]
% viability (m. mycetomatis hyphae): 114.7%

CC1(C)CN(C(=O)c2ccc(-c3cccc4nc(NC(=O)C5CC5)nn34)cc2)C1 [ONC0001278, solcitinib]
% viability (m. mycetomatis hyphae): 60.54%

CNCc1ccc(-c2cc(-c3nc(-c4ccc(S(=O)(=O)C(C)C)cc4)cnc3N)on2)cc1 [ONC0005048, ve822]
% viability (m. mycetomatis hyphae): 77.72%

c1ccc2oc(C3=NCCN3)cc2c1 [ONC0002719, 2bfi]
% viability (m. mycetomatis hyphae): 76.35%

CC(C)(C)c1cc(C(C)(C)C)c(NC(=O)c2c[nH]c3ccccc3c2=O)cc1O [ONC0004880, ivacaftor vx770]
% viability (m. mycetomatis hyphae): 126.9%

CC(C)NCCCn1c(Sc2cc3c(cc2I)OCO3)nc2c(N)ncnc21 [ONC0002276, puh71]
% viability (m. mycetomatis hyphae): 67.16%

Cc1cnc(Nc2ccc(F)cc2Cl)nc1-c1c[nH]c(C(=O)N[C@H](CO)c2cccc(Cl)c2)c1 [ONC0005411, vx11e]
% viability (m. mycetomatis hyphae): 117%

CC(C)CN(C[C@@H](O)[C@H](Cc1ccccc1)NC(=O)O[C@H]1CCOC1)S(=O)(=O)c1ccc(N)cc1 [ONC0003406, amprenavir]
% viability (m. mycetomatis hyphae): 51.58%

NC(=O)c1ccc(N(C(N)=O)c2c(F)cccc2F)nc1-c1ccc(F)cc1F [ONC0004787, vx702]
% viability (m. mycetomatis hyphae): 67.05%

O=C(Nc1nc2cccc(-c3ccc(CN4CCS(=O)(=O)CC4)cc3)n2n1)C1CC1 [ONC0001023, filgotinib]
% viability (m. mycetomatis hyphae): 70.26%

CCC1/C=C(\C)CC(C)CC(OC)C2OC(O)(C(=O)C(=O)N3CCCCC3C(=O)OC(/C(C)=C/C3CCC(O)C(OC)C3)C(C)C(O)CC1=O)C(C)CC2OC (stereo not drawn) [ONC0004338, ascomycin fk520]
% viability (m. mycetomatis hyphae): 150.4%

O=C(O)[C@]1(Cc2cccc(Nc3nccs3)n2)CC[C@@H](Oc2cccc(Cl)c2F)CC1 [ONC0005246, mk5108 vx689]
% viability (m. mycetomatis hyphae): 132.5%

CCCC(C)C1(CC)C(=O)NC(=S)NC1=O (stereo not drawn) [ONC0001983, thiopental]
% viability (m. mycetomatis hyphae): 75.11%

gonadorelin acetate [ONC0002245]
% viability (primary screen, metabolic activity vs growth control, inhibitor): 141.9%

Cc1cc(Nc2cc(N3CCN(C)CC3)nc(Sc3ccc(NC(=O)C4CC4)cc3)n2)[nH]n1 [ONC0004696, vx680 mk0457 tozasertib]
% viability (m. mycetomatis hyphae): 120.2%

CCO[C@H]1OC(=O)C[C@@H]1NC(=O)[C@@H]1CCCN1C(=O)[C@@H](NC(=O)c1ccc(N)c(Cl)c1)C(C)(C)C [ONC0004605, belnacasan vx765]
% viability (m. mycetomatis hyphae): 74.26%

CC[C@@](C)(Nc1ccnc(-c2c[nH]c3ncccc23)n1)C(=O)NCC(F)(F)F [ONC0001022, decernotinib]
% viability (m. mycetomatis hyphae): 66.72%

CCC(=O)O[C@@H]1CC(=O)O[C@H](C)C/C=C/C=C/[C@H](O)[C@H](C)C[C@H](CC=O)[C@H](O[C@@H]2O[C@H](C)[C@@H](O[C@H]3C[C@@](C)(O)[C@@H](OC(=O)CC)[C@H](C)O3)[C@H](N(C)C)[C@H]2O)[C@H]1OC [ONC0000323, midecamycin]
% viability (m. mycetomatis hyphae): 88.92%

COc1cc(NC(=O)Nc2cccc(CNC(=O)O[C@H]3CCOC3)c2)ccc1-c1cnco1 [ONC0001842, merimepodib]
% viability (m. mycetomatis hyphae): 78.29%

O=C(O)C[C@H]1CC[C@H](c2ccc(-c3ccc(Nc4ccc(C(F)(F)F)nc4)cn3)cc2)CC1 [ONC0001945, pradigastat]
% viability (m. mycetomatis hyphae): 103.8%

Cc1ccc(NC(=O)C2(c3ccc4c(c3)OC(F)(F)O4)CC2)nc1-c1cccc(C(=O)O)c1 [ONC0004867, vx809 lumacaftor]
% viability (m. mycetomatis hyphae): 108.5%

C[N+]12CCC(CC1)C(OC(=O)C(O)(c1ccccc1)c1ccccc1)C2 (stereo not drawn) [ONC0000315, clidinium bromide]
% viability (m. mycetomatis hyphae): 88.97%

COc1ccc2c(O[C@@H]3C[C@H]4C(=O)N[C@]5(C(=O)NS(=O)(=O)C6CC6)C[C@H]5/C=C\CCCCN(C)C(=O)[C@@H]4C3)cc(-c3nc(C(C)C)cs3)nc2c1C [ONC0000991, simeprevir]
% viability (m. mycetomatis hyphae): 85.85%

CCOP(=S)(OCC)Oc1cc(C)nc(C(C)C)n1 [ONC0003874, dimpylate]
% viability (m. mycetomatis hyphae): 60.75%

O=P1(N(CCCl)CCCl)NCCCO1 (stereo not drawn) [ONC0000336, cyclophosphamide]
% viability (m. mycetomatis hyphae): 62%

O=C(O)CCCc1ccc(N(CCCl)CCCl)cc1 [ONC0000730, chlorambucil]
% viability (m. mycetomatis hyphae): 84.26%

CC[C@H]1OC(=O)[C@H](C)[C@@H](O[C@H]2C[C@@](C)(OC)[C@@H](O)[C@H](C)O2)[C@H](C)[C@@H](O[C@@H]2O[C@H](C)C[C@H](N(C)C)[C@H]2O)[C@](C)(O)C[C@@H](C)[C@@H]2N[C@@H](COCCOC)O[C@H]([C@H]2C)[C@]1(C)O [ONC0005551, dirithromycin]
% viability (m. mycetomatis hyphae): 98.9%

Cc1sc2c(c1C)C(c1ccc(Cl)cc1)=N[C@@H](CC(=O)Nc1ccc(O)cc1)c1nnc(C)n1-2 [ONC0005184, otx015]
% viability (m. mycetomatis hyphae): 99.78%

CCC[C@H](NC(=O)[C@@H]1[C@H]2CCC[C@H]2CN1C(=O)[C@@H](NC(=O)[C@@H](NC(=O)c1cnccn1)C1CCCCC1)C(C)(C)C)C(=O)C(=O)NC1CC1 [ONC0004652, telaprevir vx950]
% viability (m. mycetomatis hyphae): 71.4%

CC(C)(CO)c1cc2cc(NC(=O)C3(c4ccc5c(c4)OC(F)(F)O5)CC3)c(F)cc2n1C[C@@H](O)CO [ONC0004399, vx661]
% viability (m. mycetomatis hyphae): 112.4%

CC[C@@]1(O)C(=O)OCc2c1cc1n(c2=O)Cc2cc3cc(O)ccc3nc2-1 [ONC0005199, 10hydroxycamptothecin]
% viability (m. mycetomatis hyphae): 143.5%

COc1cc2c(c(OC)c1OC)-c1ccc(OC)c(=O)cc1[C@@H](NC(C)=O)CC2 [ONC0000317, colchicine]
% viability (m. mycetomatis hyphae): 73.45%

COC(=O)[C@@H]1C[C@H](OC(C)=O)C(=O)[C@H]2[C@@]1(C)CC[C@H]1C(=O)O[C@H](c3ccoc3)C[C@]21C [ONC0003459, salvinorin a]
% viability (m. mycetomatis hyphae): 35.37%

O=c1ncn2nc(Sc3ccc(F)cc3F)ccc2c1-c1c(Cl)cccc1Cl [ONC0004865, vx745]
% viability (m. mycetomatis hyphae): 118.9%

Cn1c(=O)n(-c2ccc(C(C)(C)C#N)cc2)c2c3cc(-c4cnc5ccccc5c4)ccc3ncc21 [ONC0005249, dactolisib bez235 nvpbez235]
% viability (m. mycetomatis hyphae): 133.4%

CC(=O)Oc1ccccc1C(=O)Nc1ncc([N+](=O)[O-])s1 [ONC0002436, nitazoxanide]
% viability (m. mycetomatis hyphae): 87.75%

CCN(CC)C(C)C(=O)c1ccccc1 (stereo not drawn) [ONC0002292, amfepramone]
% viability (m. mycetomatis hyphae): 71.71%

CC(C)(O)CNc1nc(Nc2ccnc(C(F)(F)F)c2)nc(-c2cccc(C(F)(F)F)n2)n1 [ONC0001138, enasidenib]
% viability (m. mycetomatis hyphae): 67.01%
